The text below walks through data of patent EP4005565A1 (priority 2020, dated 2022).

Structures can show the parent of a compound that is named as a salt. Where two headings read alike, the source gives them in different places. Some results are limits rather than exact numbers.

In series [1] the test system is SARS-CoV-2 (viral strain INMI1). In words: Antiviral activity assay with nucleoprotein readout (ELISA) in infected Vero E6 cells. The class given is cell-based. The following applies: Severe acute respiratory syndrome coronavirus 2, Vero C1008, 72 h, read-out: IC50, SARS-CoV-2 replication (virus nucleoprotein in % of infected untreated control). How it is done: The cell line is routinely maintained in DMEM supplemented with 1% glutamine, 1% penicillin/streptomycin and 10% fetal bovine serum and can be infected with SARS-CoV-2 (Ogando et al., 2020).
Exponentially growing Vero E6 cells were seeded into a 96-well plate at their optimal density in complete medium. […] Drug dilutions were performed in culture medium. Replicates for each concentration point were examined. At the end of the incubation period, antiviral activity was examined through both ELISA (Sino Biological, quantifying SARS-CoV-2 nucleoprotein) as well as a cytoprotection assay (toxicity effect examined through an inverted microscope). An inhibitory concentration 50% (IC50) value was calculated through interpolation of the dose-response curves generated.
The nucleoprotein was quantified by ELISA. Results are means ± SD of 2-4 experiments.

Series [2] deals with influenza A. As to conditions: inhalation, cited from earlier work.
For series [3] the following is noted: 7 volunteers and 3 influenza patients; 1.5%, up to 9h, 2x6h, 10-11h in 3d (Knight et al., 1979); cited from earlier work.
Series [4] concerns influenza A. The following applies: 20 influenza A patients; inhalative 1%, 20mg/d, 3x20min, 4d (Hayden et al., 1980); cited from earlier work.
In series [5] the target is binding of the viral spike protein to ACE2 (UniProt P0DTC2+Q9BYF1). The following applies: Fink et al. in prep; cited from earlier work.
The conditions of series [6]: cited from earlier work.
For series [7] the following is noted: cited from earlier work. This is another data set of the same source.
The test system of series [8] is influenza A. The following applies: inhaled at 6mg/kg/d (Fenton et al., 1977); cited from earlier work.
A further series relates to lysosomal uptake. The following applies: at 10µM (Smieszek et al., 2020); cited from earlier work.
For another series, the system named is SARS-CoV-2. In words: Treatment of a SARS-CoV-2 positive patient with nebulized amantadine hemisulfate (Example 2). The class given is in vivo. The following applies: 0.4mg/ml inhaled every 2 h for 30min 6 times per day, 7 days. An excerpt: A patient who had contact 2 days ago with a colleague who turned out to be SARS-CoV-2 positive the day after the meeting, consults their primary care physician. […] The RT-PCR test for SARS-CoV-2 of a nasal swab is also positive; HR is 78/min, BP is 120/80mmHg, BR is 15/min, peripheral O2 saturation is 97%, no further health issues are diagnosed. The patient is diagnosed with Covid-19 and isolated in home quarantine with daily doctor calls to evaluate their health status. […] The treatment is continued for 7 days. […] They recover within 14 days after treatment start.

binding of the viral spike protein to ACE2, sequence (Q9BYF1 18-805, one chain of several): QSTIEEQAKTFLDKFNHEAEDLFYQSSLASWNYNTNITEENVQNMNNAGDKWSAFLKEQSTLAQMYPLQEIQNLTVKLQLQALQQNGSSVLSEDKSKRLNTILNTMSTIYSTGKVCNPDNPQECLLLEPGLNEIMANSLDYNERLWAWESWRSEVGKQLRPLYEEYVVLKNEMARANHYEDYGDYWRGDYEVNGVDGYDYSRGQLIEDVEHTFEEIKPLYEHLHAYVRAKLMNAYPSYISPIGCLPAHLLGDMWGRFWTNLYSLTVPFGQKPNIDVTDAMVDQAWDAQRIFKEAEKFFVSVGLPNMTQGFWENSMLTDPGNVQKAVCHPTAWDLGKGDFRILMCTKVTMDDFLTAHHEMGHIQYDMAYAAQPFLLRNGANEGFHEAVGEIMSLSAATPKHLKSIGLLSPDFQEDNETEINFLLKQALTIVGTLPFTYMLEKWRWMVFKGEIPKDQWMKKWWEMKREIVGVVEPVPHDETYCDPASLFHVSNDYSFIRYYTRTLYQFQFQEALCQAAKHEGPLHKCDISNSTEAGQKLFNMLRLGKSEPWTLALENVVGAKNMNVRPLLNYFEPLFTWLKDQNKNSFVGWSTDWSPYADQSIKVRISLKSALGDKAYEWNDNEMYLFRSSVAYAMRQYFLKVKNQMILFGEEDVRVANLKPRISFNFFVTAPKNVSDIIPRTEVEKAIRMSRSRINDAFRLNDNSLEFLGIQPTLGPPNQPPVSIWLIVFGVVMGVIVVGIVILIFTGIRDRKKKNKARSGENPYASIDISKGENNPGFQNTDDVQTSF

`NC12CC3CC(CC(C3)C1)C2` [amantadine hydrochloride]: in [1], the concentration for half-maximal inhibition (IC50) is 88 µM.
On to `NC12CC3CC(CC(C3)C1)C2` [amantadine, 1-Adamantylamine], for which, in the series on influenza A [2] (40 mg/d retained dose (Wilson et al., 1980)), the virus load entry is recorded as “reduced virus load”. Also, in the series with influenza A [2] (22h/day, 4mg/d retained dose (Walker et al., 1976)), the effect on survival result is listed as “positive effect on survival”. The “safety of inhalative administration” value in series [3] was “safe and irritation-free”. Also, in the series with influenza A [4], the symptoms entry is “improved symptoms” and the virus load result is “reduced virus load”. In addition, the “Interference with the binding of the viral spike protein to ACE2 on target cells” value in series [5] is “can be ruled out”. Also, in [6] (human, in vivo), the “serum concentrations in intoxication case” value is reported as 15.9 µM. Besides, in [6] (patients, plasma), the “plasma concentration at which aggressive behaviour was observed” value is 5.5 to 6.6 µM; the “plasma concentration at which depression and confusion were observed” value is 19.9 µM; the “plasma concentration at which seizures were observed” value is 13.2 µM. The “plasma concentration after inhalative administration” value in series [7] (healthy human volunteers, inhalation (Hayden et al., 1979)) was 0.13 µM. For the same compound, in series [7] (patients receiving regularly 600 mg orally per day (Brenner et al., 1989)), the plasma concentrations result is on record as “up to 14.6 µM”. The virus load result in the series on influenza A [8] is recorded as “reduced virus load”. Besides, the reduced lysosomal uptake in the series with lysosomal uptake was 50%.
On to amantadine hemisulfate, for which, in the series on SARS-CoV-2, the “breathing problems during treatment” value is “does not suffer from breathing problems”, the fever during treatment result was “transiently minor fever” and the “time to recovery after treatment start” value is listed as no more than 14 days.
